From patent publication US6602487B1, “Methods and tests for producing and for inhibiting coronary artery vasospasms” (Dimera Incorporated, priority 1997, dated 2003)
Where “and” joins values, the source holds several entries; their conditions need not be identical. Equal values may be shown once. Entries after “also recorded” stand apart in the source; their conditions may differ. Read-outs that look alike come from different tables or passages of the source.

Columns and labels:
coronary arteries [1] = experiment: Mechanical injury coronary vasospasm protocol (Protocol 2); type: in vivo, rhesus monkeys (Macaca mulatta); details: for Spasms/N: number of animals with vasospasm / number of animals; for ED50 (-log mol/liter): syringe concentration of the named vasoconstrictor causing 50% reduction of diameter from control, combined stimuli with 100 μmol/liter serotonin
From the text: A separate mechanical injury, Protocol 2, was used in three additional monkeys (one male, two ovx). The injury step of Protocol 2, was deliberate mechanical stretching of the LAD or left main coronary artery with a 5F catheter.
In Protocol 2, steps 1-5 were the same as in Protocol 1. The remaining steps were as follows:
7. IC injection of angiotensin II (sequential doses to 10 μmol/liter);
8. Injury by stretching the coronary artery with a 5F catheter;
9. IC injection of serotonin (sequential doses to 1 mmol/liter);
10. IC injection 15 minutes later with 1 or 10 μmol/liter nitrendipine or Ro 40-5967 (mibefradil);
11. IC injection of […] (sequential doses to 10 μmol/liter); and
12. IC injection 15 minutes later with 1 or 10 μmol/liter nitrendipine or Ro 40-5967.
Putative coronary vasospasm stimuli were judged primarily by actions on large coronary artery diameters, analyzed as diameter of the most proximal focus of vasospasm at end-diastole from video-taped images recorded at 30 frames/s. We used the image analysis program Image Pro to measure the diameters from single frames acquired with an Imagraph frame grabber in a Pentium computer. We used the 3F catheter tip radio-opaque marker ring (1.0 mm) for calibration and determined minimal and maximal diameters just distal to the constriction. All responses to interventions were also X-ray imaged immediately (15 to 30 s after injection) and at exactly 3 minutes (and 15 minutes if there was vasospasm) after injection.

coronary arteries [2] = details: for EC50: read-out: estimated ET1 EC50, responsive ovx monkeys; for coronary vasospasm on IC injection (no mechanical injury): serotonin 6.7 or 200 μmol/liter alone, U46619 6.7 to 2,000 nmol/liter alone, AII up to 200 nmol/liter, combination 6.7 μmol/liter serotonin and 67 nmol/liter U46619, triple combination with ET1
[3] = tested on: coronary artery vascular muscle cells (VMC); experiment: Subcellular Ca2+ and PKC localization and contraction of coronary VMC stimulated with serotonin plus U46619; type: cell-based, rhesus monkeys
From the text: Single VMCs from the left anterior descending, circumflex, and right coronary arteries of adult rhesus monkeys were isolated and studied both as freshly dispersed and as primary cultures. The short-term primary cultured cells (never passaged) maintain the characteristics of the source tissue for 2 3 weeks, including contraction, relaxation, receptors, and membrane electrical properties. VMCs were dissociated with collagenase and protease enzymes in a potassium glutamate solution (KG) that prevent loading with Na^+, Ca^2+, or Cl^− and results in a high proportion of viable, contracting cells (Self, D. A., et al., J. Vasc. Res. 31:359-366 (1994); Rusch., N. J., et al., Physiology and Pathophysiology of the Heart, 999-1010 (1995)). The cells prepared for culture were seeded at low density in cardiovascular culture solution for mammals, fifth generation (CV5M) on glass coverslips to facilitate selection of individual cells. VMC were used for experiments 7-14 days after attaching to coverslips.
Freshly dispersed or primary cultured VMCs on glass coverslips were placed in a chamber of laminar flow design and observed with a Zeiss Plan Neofluar 25×/0.80 water immersion objective. Ionic solution for mammals version 2 (ISM2) was continuously pumped through the chamber (at 1 ml/minute) to provide continuous equilibration and washout of drugs. After a 15 minutes equilibration period, VMC were loaded for 15 minutes at room temperature with 3 μM fluo 3 (Molecular Probes, Inc.) for sensing Ca^2− and for 10 minutes with […] hypericin (LC Laboratories) for reporting PKC. Individual VMC were stimulated by adding 20 μl of 10 μM serotonin plus 100 nM U46619 over the individual cell. After 15 seconds under no-flow conditions, continuous flow of ISM2 was reinstated and a chamber volume of approximately 300 μl was maintained. Fluorescent images were taken at 1, 2, 5, 10, 15, 20 and 30 minutes after stimulation for Ca^2+ and at 3, 4, 9, 16, 21 and 31 minutes for PKC to evaluate subcellular distribution of these signals, and to determine VMC contraction.
ISM2 contains (in mM): 100 NaCl, 4 NaHCO3, 0.5 NaH2PO4, 4.7 KCl, 1.8 CaCl2, 0.41 […], 50 HEPES (pH 7.37), and 5.5 dextrose, KG solution consists of (in mM); 140 K-glutamate, 16 NaHCO3, 0.5 NaH2PO4, 30 HEPES, and 16.5 dextrose at pH 7.3. CVSM consists of. 4.0 mM L-glutamine, 10 μg/ml ciprofloxacin (Miles Pentex/Bayer Corporation), 50 mM HEPES (pH 7.3), and 16 mM NaHCO3 dissolved in 85% MEM-Earle's'salts and 15% horse serum. Phenol red, known to have estrogenic activity, was omitted from all solutions.
As discussed above, the monkeys were implanted with subdermal sylastic tubing containing estrogen (E) progesterone (P) or MPA. The first step in each of the three groups was to implant sylastic tubing containing E. Two weeks later, either P or MPA were additionally implanted and maintained for another 4 weeks (6 weeks total). In the withdrawal (W) group, the E tube was withdrawn, and no tubes were implanted for the last 4 weeks.

coronary arteries [4] = experiment: Drug-induced (S+U) coronary vasospasm in ovariectomized monkeys with E2 plus P or MPA implants; type: in vivo, rhesus monkeys (Macaca mulatta)
Experimental: Twelve rhesus monkeys (Macaca mulatta), aged 8 to 16 years and with weights of 5-7 kg, were ovariectomized at least 3 months prior to beginning of the study and selected randomly for one of two treatments. After documenting the lack of cardiovascular disease or previous exposure to atherogenic diet and after a normal physical examination (including blood chemistry), monkeys received subdermal sylastic implants containing 200 mg of E2. Two weeks later, sylastic implants containing either 400 mg of P or 400 mg of MPA were additionally implanted. All steroids were purchased from Steraloids (Wilton, N.H.). Both estrogen and progestin implants, providing sustained release steroids, remained in place through the catheterization study 6 weeks after beginning the study. Venous blood sample (5 ml) were collected just prior to beginning the study at weekly intervals for measurements of serum levels of E2, P, and MPA. Target levels of 80-160 pg/ml for E2, 4000-8000 pg/ml for P, and 400-800 pg/ml for MPA were based on levels that are effective by reproductive system indices in women and monkeys. Levels were measured in blood serum at catheterization by specific radio-immunoassays.
Angiography was carried out under isoflurane (0.75-1.25%) general anesthesia with 70% O2 and 30% N2O, and body temperature supported with a heating pad. After ketamine sedation (10 mg/kg) and endotracheal tube placement, both femoral arteries were cannulated for simultaneous measurement of systemic blood pressure and coronary catheterization. Intravenous anticoagulation with 1000 units of heparin and fluid replacement with 75-150 ml of lactated Ringer's solution, and if needed 10-50 ml of dextran, to reach a minimum control diastolic blood pressure of 60 mm Hg.
Coronary arteries (left anterior descending or left circumflex) of the monkeys were catheterized and agents injected as described above in Example 1.
Statistical analysis was carried out by Student's t-test (non-paired) or Chi-square, with the p<0.05 level accepted as significant.
All monkeys were treated with estradiol 17β via sylastic implants for the entire treatment period. P or MPA was added during the last 2 weeks as a second sylastic implant, to simulate the luteal phase (P) or hormone replacement therapy (MPA). All steroid implants were left in place, including during angiography. Steroid measurements were made by RIA on serum samples taken just before angiography. Indicates significant differences between P and MPA at p 0.05 (N=6 for each group).

[5] = angiographic example, one MPA monkey
[6] = minimum, 5-20 minutes after IC S + U

CC[C@H](C)[C@H](NC(=O)[C@H](CC(=O)O)NC(=O)[C@H](CC(C)C)NC(=O)[C@H](Cc1c[nH]cn1)NC(=O)[C@@H]1CSSC[C@H](N)C(=O)N[C@@H](CO)C(=O)N[C@H]2CSSC[C@H](NC(=O)[C@H](CCC(=O)O)NC(=O)[C@H](CCCCN)NC(=O)[C@H](CC(=O)O)NC(=O)[C@H](CCSC)NC(=O)[C@H](CC(C)C)NC(=O)[C@H](CO)NC(=O)[C@H](CO)NC2=O)C(=O)N[C@@H](C(C)C)C(=O)N[C@@H](Cc2ccc(O)cc2)C(=O)N[C@@H](Cc2ccccc2)C(=O)N1)C(=O)N[C@H](C(=O)N[C@@H](Cc1c[nH]c2ccccc12)C(=O)O)[C@@H](C)CC [Endothelin 1]
Spasms/N (coronary arteries [1]; Protocol 2): 0/3 | ED50 (-log mol/liter) (coronary arteries [1]; Protocol 2): 8.5 -log mol/liter | EC50 (coronary arteries [2]; with 6.7 μmol/liter serotonin): 0.067 nM | EC50 (coronary arteries [2]; without serotonin): 0.2 nM

CCCCC[C@H](O)/C=C/[C@@H]1[C@@H](C/C=C\CCCC(=O)O)[C@H]2CO[C@@H]1C2 [U46619]
coronary vasospasm with mechanical injury (5F catheter stretch) (coronary arteries [1]; serotonin 67 μmol/liter IC, U46619 67 nmol/liter or 1 nmol/liter, ET1 ≦10 nmol/liter, AII ≦10 μmol/liter): caused another vasospasm; also recorded: Vasospasm was stimulated | EC50 (-log mol/liter) (coronary arteries [2]; Protocol 1, estimated actual coronary artery blood concentration based on 15-fold dilution): 6.8 -log mol/liter | Spasms/N (coronary arteries [2]; Protocol 1, number of animals with vasospasm / number of animals): 0/8 | ED50 (-log mol/liter) (coronary arteries [2]; Protocol 1, syringe concentration of the named vasoconstrictor causing 50% reduction of diameter from control, combined stimuli with 100 μmol/liter serotonin): 5.5 -log mol/liter | vasoactivity / constriction of arteries on IC injection of single agent (coronary arteries [2]; serotonin 67 nmol/liter to 667 μmol/liter, U46619 6.7 to 2,000 nmol/liter): caused constriction of arteries in all 10 monkeys | coronary vasospasm on IC injection (no mechanical injury) (coronary arteries [2]): vasospasm could not be found

CC(=O)OCC[N+](C)(C)C [ACh, acetylcholine]
time to vasodilation (coronary arteries [2]; 67 nmol/liter ACh IC, all monkeys): ≤ 15 s

Angiotensin II: vasoconstrictor angiotensin-II (DRVYIHPF; Angiotensin-2; UniProt P01019 25-32, looked up)
EC50 (-log mol/liter) (coronary arteries [1]; Protocol 2, estimated actual coronary artery blood concentration based on 15-fold dilution): 6.8 -log mol/liter | Spasms/N (coronary arteries [1]; Protocol 2): 0/3 | ED50 (-log mol/liter) (coronary arteries [1]; Protocol 2): 5.5 -log mol/liter | systemic blood pressure (coronary arteries [2]; Angiotensin II up to 200 nmol/liter IC): did increase systemic blood pressure | coronary vasospasm on IC injection (no mechanical injury) (coronary arteries [2]): did not cause vasospasm

CC(=O)O[C@]1(C(C)=O)CC[C@H]2[C@@H]3C[C@H](C)C4=CC(=O)CC[C@]4(C)[C@H]3CC[C@@]21C [MPA, medroxyprogesterone acetate]
whole cell Ca2+ (fluo 3) fluorescence after stimulation ([3]; VMC from treated monkeys, 10 μM serotonin plus 100 nM U46619, FIG. 3): significantly increased over control averaged over the whole cell at 1 minute and every subsequent time point | peripheral-to-central Ca2+ ratio after stimulation ([3]; VMC from treated monkeys, 10 μM serotonin plus 100 nM U46619, FIG. 4): significantly decreased peripheral-to-central Ca^2+ ratio at 10 minutes and all subsequent times | PKC signal after stimulation ([3]; VMC from treated monkeys, 10 μM serotonin plus 100 nM U46619, FIG. 5): significantly above the 0-min control at 3 minutes and all subsequent time points | peripheral-to-central PKC ratio after stimulation ([3]; VMC from treated monkeys, 10 μM serotonin plus 100 nM U46619, FIG. 6): decreased significantly | VMC contractions (cell width) after stimulation ([3]; VMC from treated monkeys, 10 μM serotonin plus 100 nM U46619, FIG. 7): significantly different from 0-min controls at 3 minutes and all subsequent times | duration of activation by serotonin and U46619 ([3]; based on comparisons of contractions, protocol limit 30 minutes): > 30 min | diameter in dilator response to low dose ACh (coronary arteries [4]; 0.18 μg ACh IC): 1.21±0.19 mm | number of S+U challenges responded to with vasospasm (mean) (coronary arteries [4]; E2+MPA treated monkeys): 2.7±0.7 | number of S+U challenges responded to with vasospasm (range) (coronary arteries [4]; E2+MPA treated monkeys): 1-5 | Vasospasms (incidence) (coronary arteries [4]; S+U IC challenges, E2 implant plus P or MPA implant, N=6 per group): 6 of 6 and 6/6* | reduction of minimum (φ) from controls after S+U (coronary arteries [4]; S+U stimulation): 87% | constriction after IC S+U (coronary arteries [4]; [5]): 92% | time constriction was sustained (coronary arteries [4]; [5]): 15 min | blood pressure nadir (coronary arteries [4]; angiographic example, one MPA monkey after S+U): 38/20 | Control DBP in mm Hg (coronary arteries [4]; before S + U): 61 ± 5 mm Hg | Control Heart rate in bpm (coronary arteries [4]; before S + U): 134 ± 26 bpm | S + U (φ) minimum (coronary arteries [4]; minimum diameter 3 to 5 minutes after IC S + U): 0.15±0.04 mm | S + U stim DBP in min Hg (coronary arteries [4]; [6]): 26 ± 8 min Hg | S + U stim SBP in mm Hg (coronary arteries [4]; [6]): 45 ± 11 mm Hg | S + U stim heart rate in bpm (coronary arteries [4]; [6]): 69 ± 24 bpm | Control (φ) in mm (coronary arteries [4]; proximal LAD or left circumflex diameter under control conditions, E2+P or E2+MPA group): 1.15±0.10 mm
